{"source": "patent US20220016241A1", "about": "“COMPOSITIONS AND METHODS FOR REDUCING ANTIGEN-SPECIFIC IMMUNOGENICITY” (The Research Foundation for The State University of New York, priority 2013, published 2022)", "key": {"[1]": {"tested_on": "anti-FVIII antibody titers", "test": "FVIII-specific tolerance with OPLS, OPDS or Dex, rechallenge with free FVIII (FIG. 11)", "details": "s.c. co-administration with FVIII, then s.c. free FVIII"}, "[2]": {"tested_on": "anti-GAA antibody titers", "test": "Effect of OPLS on immunogenicity of GAA protein", "assay_type": "in vivo, mice", "details": "5 mg dose with 1 μg GAA, 4 weekly s.c., 2 week rest", "experimental": "Materials and Methods: GAA Source: Full length recombinant rhGAA was produced in Human Kidney Embryo Cells for our use by Creative Biomart (Shirley, N.Y.); OPLS Source: Sigma-Aldrich (St. Louis, Mo.). n=8 animals/group were immunized with 4 weekly s.c. injections of 1 μg of GAA in 100 μl of either sterile TRIS for the free group or in 5 mg OPLS in sterile TRIS for the OPLS-GAA group. A group of 8 mice will receive the same dose of CBrhGAA in 5 mg O-phospho-D-serine (OPDS) solution as a negative control. After a 2 week rest period, a blood sample from the saphenous vein will be collected. Samples were stored at −80° C. until analysis. These samples were then analyzed for anti-GAA Ab titers. Anti-GAA antibody titers were measured as follows: ELISA plate (maxisorp, NUNC) was coated with 50 μl of 5 μg/ml of sterile rhGAA in sodium carbonate-bicarbonate buffer pH =9.6. The plate was incubated overnight at 4° C. The plate was washed six times with PBS containing 0.05% Tween 20 (PBS-T, 250 μl/well) using an automated plate washer. The plate was blocked with PBS containing 1% BSA (300 μl/well) as the block buffer for 2 hr at 37° C. […] The reaction was stopped with 2 N sulfuric acid and read immediately at 450 nm using a micro-plate reader. The titer values are quantitated using a statistical endpoint method as described by Frey et al. Control plasma samples were run on each plate. […]"}, "[3]": {"tested_on": "anti-GAA total titers", "test": "OPLS-GAA sequential administration study", "assay_type": "in vivo, Mice", "experimental": "This examples describes OPLS-GAA sequential administration study. To determine if OPLS can exert its immunomodulatory effects on the immune response to GAA when the two are administered in separate spaced injections, at the same injection site the following experiments were carried out. Mice (n=6 animals/group) were immunized with 4 weekly sc injections as follows. One group of animals received one single combined injection of 5 mg OPLS and 1 μg rhGAA(100 μl volume). Recombinant human GAA was produced by Creative Biomart. The second group received one injection of 5 mg OPLS (100 μl volume) then after a 5 minute wait they received a second injection of 1 μg rhGAA in sterile TRIS (100 μl volume) in the same injection site. The final control group received one injection of sterile TRIS (100 μl volume) then after a 5 minute wait they received a second injection of 1 μg rhGAA in sterile TRIS (100 μl volume) in the same injection site. After a two week rest period a saphenous blood sample was collected. All of the mice were then rechallenged with 4 weekly injections of 1 μg of rhGAA in 100 μl sterile TRIS (one single injection). Analysis was done by ELISA for total titers. The mean free GAA after 6 weeks was 3135±910, When co-administered, the GAA was 787±155, and when administered separately (sequentially), the GAA was 926±202 (FIG. 26). After re-challenge, terminal sampling was done at week 11. The mean free GAA after 11 weeks was 8775±2363, When co-administered, the GAA was 895±335, and when administered separately (sequentially), the GAA was 1884±761. […] Either administration method was able to induce a hypo-responsiveness towards GAA."}, "[4]": {"test": "Rituximab pharmacokinetics after iv and sc administration in isotonic and hypertonic buffers", "assay_type": "in vivo, SW mice", "experimental": "Preparation and characterization of injection buffers: One isotonic and six different hypertonic TRIS buffers were prepared to investigate the effects of hypertonicity and buffer composition on rituximab lymphatic uptake and plasma exposure (Table 1.).\nIsotonic TRIS buffer was prepared using 25 mM TRIS and 150 mM NaCl (Buffer A). Hypertonic (600 mmol/kg) TRIS buffers were prepared with 25 mM of TRIS containing 300 mM NaCl (Buffer B). Buffers “C” and “E” contained NaCl as well as 20 mM of OPLS or Mannitol. To further delineate the effects of buffer composition on lymphatic uptake, we prepared two buffers at 600 mmol/kg with a 270 mM of OPLS (Buffer D) or mannitol (Buffer F). […] Osmolarity was measured using a 5500 Vapor Pressure Osmometer (Wescore Inc. Logen, Utah, USA) according to manufacturer's instruction.\nRituximab pharmacokinetics studies: 126 male SW mice were divided into 7 groups. […] The disposition of RXT will be determined from the iv PK profile and convoluted with the absorption data generated from the sc studies. […] Immediately before analysis; the inguinal lymph nodes were homogenized in 300 μl of PBS on ice and then analyzed.\nAnalysis of RXT in plasma and lymph node samples: Analysis of plasma and lymph node samples from PK studies was done with a standard ELISA. […] Optical density at 450 nm was measured using a plate reader."}}, "data": [{"molecule": "N[C@H](COP(=O)(O)O)C(=O)O", "note": "[OPDS, O-Phospho-D-Serine, reference compound]", "values": [{"measurement": "FVIII-specific hypo-responsiveness upon rechallenge", "setting": "[1]", "result": "did not"}, {"measurement": "Anti-GAA antibody titers vs GAA alone", "setting": "[2]", "result": "lower"}]}, {"molecule": "free GAA: Full length recombinant rhGAA produced in Human Kidney Embryo Cells by Creative Biomart", "values": [{"measurement": "Total titers (ELISA), week 11 after re-challenge", "setting": "[3]; control group, rechallenge 4 weekly 1 μg rhGAA", "result": "8775±2363"}, {"measurement": "Total titers (ELISA), week 6", "setting": "[3]; control: TRIS then 1 μg rhGAA 5 min later, same site, 4 weekly sc", "result": "3135±910"}]}, {"molecule": "rituximab: Commercial preparation of rituximab (RXT)", "values": [{"measurement": "sc bioavailability of rituximab", "setting": "[4]; 1 μg/g in isotonic Buffer A", "result": 0.29}, {"measurement": "Fraction of the dose taken up by the lymph nodes", "setting": "[4]; 1 μg/g sc in isotonic Buffer A, estimated", "result": 0.05}]}]}
